Data on one compound can be found in patent publication US7674451B2, “Cosmetic or pharmaceutical composition comprising peptides, uses and treatment processes” (ISP Investments Inc., priority 2002, dated 2010).

The data set deals with ERG 1-2 molecule. Nature of the data set: Cell differentiation marker ERG 1-2 in HaCat keratinocytes, immunofluorescence. In kind it is cell-based. As to conditions: HaCat human keratinocytes, 24 hours.

Where a SMILES comes first, the peptide text is derived from it.

For the compound `N=C(N)NCCC[C@H](N)C(=O)NCC(=O)N[C@@H](CO)C(=O)O` [Arg-Gly-Ser] (H-Arg-Gly-Ser-OH), the “quantity of ERG molecules present in the cells (intensity of fluorescence)” value is listed as “increases”.
